{
  "source": "patent US11434194B2",
  "about": "“Amorphous form of vilanterol trifenatate and processes for the preparation thereof” (Hovione Scientia Limited, priority 2017, dated 2022)",
  "format_in_all_cases": "physicochemical",
  "key": {"[1]": {"assay": "Visual solubility in differing solvents (European Pharmacopeia 6.0 section 5.11)", "procedure": "Visual solubility of the amorphous form of the invention in differing solvents was assessed according to the procedure described in the European Pharmacopeia 6.0 section 5.11. p. 659 (see corresponding SI dissolution ranges in Table 2), and compared with that for Form 1. The following method was used: Dissolving procedure: the compound was shaken vigorously for 1 min and placed in a constant temperature device for 15 min at 25.0±0.5° C. If the compound was not completely dissolved, the shaking was repeated for 1 min and the tube placed in a constant temperature device for 15 min. Method: 50 mg of compound was weighed in a stoppered tube, 0.05 mL of the solvent added and the Dissolving Procedure (see above) followed. If the compound was completely dissolved, it was defined very soluble. If the compound was not completely dissolved, a further 0.45 mL of the solvent was added and the Dissolving Procedure (see above) followed. […] If the compound was still not completely dissolved, still further 1.0 mL of the solvent was added and the Dissolving Procedure (see above) followed. If the compound was completely dissolved, it was defined as soluble. If the compound was still not completely dissolved, another 3.5 mL of the solvent was added and the Dissolving Procedure (see above) followed. […] If the compound was still not completely dissolved, the compound was slightly soluble or very slightly soluble. In this case, the suspension was heated up to the boiling point (max 80° C.) under stirring to verify the solubility at high temperature. The hot solution was afterwards cooled to room temperature to observe whether the compound precipitates. If the compound at room, temperature was completely dissolved, it is soluble at high temperature. [table]"}, "[2]": {"assay": "Solid-state storage stability (XRPD pattern, HPLC chromatogram)", "procedure": "Such conditions reflect conditions similar to those in which the current medicaments (mentioned above) may be stored.\nHPLC analysis was conducted using a waters system under the following conditions:\nX-ray powder patterns were recorded using the PANalytical X'Pert PRO X-ray diffraction system equipped with a PW3373/00 Cu LFF DK184511 X-Ray tube and a X'Celerator RTMS (Real Time Multiple Strip) detector under the following conditions: […]"}, "[3]": {"assay": "Dynamic vapour sorption (DVS) analysis / kinetic moisture sorption, hygroscopicity", "settings": "for Change In Mass (%) Desorption / Change In Mass (%) Hysteresis / Change In Mass (%) Sorption: 25° C.", "procedure": "The values in the table are weight % variations that result from the use of the European Pharmacopoeia equation provided below. The hygroscopicity value is indicated from the sorption row at 80% RH of cycle 1.\nThe sample was subjected to DVS measuring using SMS-DVS intrinsic. The kinetic moisture sorption measurement was performed at 25° C. and in a RH % range described in the following: • From 40% RH to 90% RH • Form 90% RH to 0% RH • From 0% RH to 90% RH • From 90% RH to 0% RH\nThe sample was analyzed by XRPD after the analysis.\nThe hygroscopicity was calculated using the following equation: % Weight Change=[(W2−W1)/W1]*100, (1) wherein W1 is the weight of the sample at the start of the experiment (25° C. and 40% RH), and W2 is the weight of the sample at 25° C. and 80% RH in the first absorption cycle."}},
  "data": [
    {"smiles": "OCc1cc([C@@H](O)CNCCCCCCOCCOCc2c(Cl)cccc2Cl)ccc1O", "note": "[Form I, 4-((1R)-2-((6-(2-((2,6-Dichlorophenyl)methoxy)ethoxy)-hexyl)amino)-1-hydroxyethyl)-2-(hydroxymethyl)phenol triphenylacetate]", "values": [
      {"measurement": "visual solubility", "setting": "[1]; 1,4-dioxane at 25° C.", "result": "freely soluble"},
      {"measurement": "visual solubility", "setting": "[1]; THF at 25° C.", "result": "freely soluble"},
      {"measurement": "visual solubility", "setting": "[1]; ethanol at 25° C.", "result": "sparingly soluble"},
      {"measurement": "visual solubility", "setting": "[1]; methanol at 25° C.", "result": "soluble"}
    ]},
    {"smiles": "OCc1cc([C@@H](O)CNCCCCCCOCCOCc2c(Cl)cccc2Cl)ccc1O", "note": "[amorphous vilanterol trifenatate, 4-((1R)-2-((6-(2-((2,6-Dichlorophenyl)methoxy)ethoxy)-hexyl)amino)-1-hydroxyethyl)-2-(hydroxymethyl)phenol triphenylacetate]", "values": [
      {"measurement": "XRPD patterns before and after exposure", "setting": "[2]; 60% RH at 25° C. (7 days)", "result": "unchanged"},
      {"measurement": "time stable on storage (XRPD pattern and HPLC chromatograms remained the same)", "setting": "[2]; room temperature", "result": "at least 5 months"},
      {"measurement": "mass increase (dynamic vapour sorption analysis; hygroscopicity value)", "setting": "[3]; 80% RH at 25° C., sorption, cycle 1", "result": 1.34, "unit": "%"},
      {"measurement": "hygroscopicity classification (European Pharmacopeia version 7)", "setting": "[3]; % weight change from 40% RH to 80% RH at 25° C., first absorption cycle", "result": "slightly hygroscopic"},
      {"measurement": "Change In Mass (%) Desorption", "setting": "[3]; Cycle 1, target RH 0.0%", "result": 1.186, "unit": "%"},
      {"measurement": "Change In Mass (%) Desorption", "setting": "[3]; Cycle 1, target RH 10.0%", "result": 1.224, "unit": "%"},
      {"measurement": "Change In Mass (%) Desorption", "setting": "[3]; Cycle 1, target RH 20.0%", "result": 1.257, "unit": "%"},
      {"measurement": "Change In Mass (%) Desorption", "setting": "[3]; Cycle 1, target RH 30.0%", "result": 1.298, "unit": "%"},
      {"measurement": "Change In Mass (%) Desorption", "setting": "[3]; Cycle 1, target RH 40.0%", "result": 1.333, "unit": "%"},
      {"measurement": "Change In Mass (%) Hysteresis", "setting": "[3]; Cycle 1, target RH 40.0%", "result": 1.332, "unit": "%"},
      {"measurement": "Change In Mass (%) Sorption", "setting": "[3]; Cycle 1, target RH 40.0%", "result": 0.001, "unit": "%"},
      {"measurement": "Change In Mass (%) Desorption", "setting": "[3]; Cycle 1, target RH 50.0%", "result": 1.368, "unit": "%"},
      {"measurement": "Change In Mass (%) Hysteresis", "setting": "[3]; Cycle 1, target RH 50.0%", "result": 1.101, "unit": "%"},
      {"measurement": "Change In Mass (%) Sorption", "setting": "[3]; Cycle 1, target RH 50.0%", "result": 0.267, "unit": "%"},
      {"measurement": "Change In Mass (%) Desorption", "setting": "[3]; Cycle 1, target RH 60.0%", "result": 1.401, "unit": "%"},
      {"measurement": "Change In Mass (%) Hysteresis", "setting": "[3]; Cycle 1, target RH 60.0%", "result": 0.784, "unit": "%"},
      {"measurement": "Change In Mass (%) Sorption", "setting": "[3]; Cycle 1, target RH 60.0%", "result": 0.618, "unit": "%"},
      {"measurement": "Change In Mass (%) Desorption", "setting": "[3]; Cycle 1, target RH 70.0%", "result": 1.437, "unit": "%"},
      {"measurement": "Change In Mass (%) Hysteresis", "setting": "[3]; Cycle 1, target RH 70.0%", "result": 0.423, "unit": "%"},
      {"measurement": "Change In Mass (%) Sorption", "setting": "[3]; Cycle 1, target RH 70.0%", "result": 1.013, "unit": "%"},
      {"measurement": "Change In Mass (%) Desorption", "setting": "[3]; Cycle 1, target RH 80.0%", "result": 1.474, "unit": "%"},
      {"measurement": "Change In Mass (%) Hysteresis", "setting": "[3]; Cycle 1, target RH 80.0%", "result": 0.131, "unit": "%"},
      {"measurement": "Change In Mass (%) Sorption", "setting": "[3]; Cycle 1, target RH 80.0%", "result": 1.344, "unit": "%"},
      {"measurement": "Change In Mass (%) Desorption", "setting": "[3]; Cycle 1, target RH 90.0%", "result": 1.516, "unit": "%"},
      {"measurement": "Change In Mass (%) Sorption", "setting": "[3]; Cycle 1, target RH 90.0%", "result": 1.516, "unit": "%"},
      {"measurement": "Change In Mass (%) Desorption", "setting": "[3]; Cycle 2, target RH 0.0%", "result": 1.063, "unit": "%"},
      {"measurement": "Change In Mass (%) Sorption", "setting": "[3]; Cycle 2, target RH 0.0%", "result": 1.186, "unit": "%"},
      {"measurement": "Change In Mass (%) Desorption", "setting": "[3]; Cycle 2, target RH 10.0%", "result": 1.186, "unit": "%"},
      {"measurement": "Change In Mass (%) Hysteresis", "setting": "[3]; Cycle 2, target RH 10.0%", "result": 0.006, "unit": "%"},
      {"measurement": "Change In Mass (%) Sorption", "setting": "[3]; Cycle 2, target RH 10.0%", "result": 1.180, "unit": "%"},
      {"measurement": "Change In Mass (%) Desorption", "setting": "[3]; Cycle 2, target RH 20.0%", "result": 1.214, "unit": "%"},
      {"measurement": "Change In Mass (%) Hysteresis", "setting": "[3]; Cycle 2, target RH 20.0%", "result": 0.035, "unit": "%"},
      {"measurement": "Change In Mass (%) Sorption", "setting": "[3]; Cycle 2, target RH 20.0%", "result": 1.179, "unit": "%"},
      {"measurement": "Change In Mass (%) Desorption", "setting": "[3]; Cycle 2, target RH 30.0%", "result": 1.243, "unit": "%"},
      {"measurement": "Change In Mass (%) Hysteresis", "setting": "[3]; Cycle 2, target RH 30.0%", "result": 0.061, "unit": "%"},
      {"measurement": "Change In Mass (%) Sorption", "setting": "[3]; Cycle 2, target RH 30.0%", "result": 1.182, "unit": "%"},
      {"measurement": "Change In Mass (%) Desorption", "setting": "[3]; Cycle 2, target RH 40.0%", "result": 1.269, "unit": "%"},
      {"measurement": "Change In Mass (%) Hysteresis", "setting": "[3]; Cycle 2, target RH 40.0%", "result": 0.079, "unit": "%"},
      {"measurement": "Change In Mass (%) Sorption", "setting": "[3]; Cycle 2, target RH 40.0%", "result": 1.189, "unit": "%"},
      {"measurement": "Change In Mass (%) Desorption", "setting": "[3]; Cycle 2, target RH 50.0%", "result": 1.294, "unit": "%"},
      {"measurement": "Change In Mass (%) Hysteresis", "setting": "[3]; Cycle 2, target RH 50.0%", "result": 0.090, "unit": "%"},
      {"measurement": "Change In Mass (%) Sorption", "setting": "[3]; Cycle 2, target RH 50.0%", "result": 1.205, "unit": "%"},
      {"measurement": "Change In Mass (%) Desorption", "setting": "[3]; Cycle 2, target RH 60.0%", "result": 1.320, "unit": "%"},
      {"measurement": "Change In Mass (%) Hysteresis", "setting": "[3]; Cycle 2, target RH 60.0%", "result": 0.093, "unit": "%"},
      {"measurement": "Change In Mass (%) Sorption", "setting": "[3]; Cycle 2, target RH 60.0%", "result": 1.228, "unit": "%"},
      {"measurement": "Change In Mass (%) Desorption", "setting": "[3]; Cycle 2, target RH 70.0%", "result": 1.345, "unit": "%"},
      {"measurement": "Change In Mass (%) Hysteresis", "setting": "[3]; Cycle 2, target RH 70.0%", "result": 0.084, "unit": "%"},
      {"measurement": "Change In Mass (%) Sorption", "setting": "[3]; Cycle 2, target RH 70.0%", "result": 1.262, "unit": "%"},
      {"measurement": "Change In Mass (%) Desorption", "setting": "[3]; Cycle 2, target RH 80.0%", "result": 1.369, "unit": "%"},
      {"measurement": "Change In Mass (%) Hysteresis", "setting": "[3]; Cycle 2, target RH 80.0%", "result": 0.061, "unit": "%"},
      {"measurement": "Change In Mass (%) Sorption", "setting": "[3]; Cycle 2, target RH 80.0%", "result": 1.308, "unit": "%"},
      {"measurement": "Change In Mass (%) Desorption", "setting": "[3]; Cycle 2, target RH 90.0%", "result": 1.393, "unit": "%"},
      {"measurement": "Change In Mass (%) Sorption", "setting": "[3]; Cycle 2, target RH 90.0%", "result": 1.393, "unit": "%"},
      {"measurement": "visual solubility", "setting": "[1]; 1,4-dioxane at 25° C., listed as amorphous of vilanterol trifenatate", "result": "soluble"},
      {"measurement": "visual solubility", "setting": "[1]; ethanol at 50° C.", "result": "sparingly soluble"}
    ]}
  ]
}
